According to article PMC9609428, “Rational Design and Synthesis of New Selective COX-2 Inhibitors with In Vivo PGE2-Lowering Activity by Tethering Benzenesulfonamide and 1,2,3-Triazole Pharmacophores to Some NSAIDs” (Pharmaceuticals, 2022):

Legend:
[1] = molecular target: T1, (Ovis aries, UniProt P05979); test: In vitro human COX-1 enzymatic inhibitory activity (Cayman COX inhibitor screening assay kit); assay type: biochemical; settings: mean ± SEM of triplicate determinations
T1 construct: purchased Cayman Chemicals Inc., Ann Arbor, MI, USA 560131
T1 sequence (P05979 25-600): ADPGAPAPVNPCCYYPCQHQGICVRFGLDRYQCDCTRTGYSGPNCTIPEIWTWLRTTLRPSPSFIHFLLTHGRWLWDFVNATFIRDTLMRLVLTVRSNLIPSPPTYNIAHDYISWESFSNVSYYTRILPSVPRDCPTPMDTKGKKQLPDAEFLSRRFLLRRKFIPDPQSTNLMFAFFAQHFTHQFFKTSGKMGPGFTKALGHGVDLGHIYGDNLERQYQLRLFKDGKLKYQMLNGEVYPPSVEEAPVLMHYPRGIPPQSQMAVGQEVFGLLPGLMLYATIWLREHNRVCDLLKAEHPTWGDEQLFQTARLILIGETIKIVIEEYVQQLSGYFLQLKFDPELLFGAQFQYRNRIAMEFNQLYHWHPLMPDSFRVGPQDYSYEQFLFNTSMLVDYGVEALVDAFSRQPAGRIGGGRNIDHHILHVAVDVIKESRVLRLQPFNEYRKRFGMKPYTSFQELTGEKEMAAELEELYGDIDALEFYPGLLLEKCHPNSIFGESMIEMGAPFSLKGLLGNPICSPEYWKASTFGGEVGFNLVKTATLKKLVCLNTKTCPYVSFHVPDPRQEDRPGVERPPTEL
Procedure: (§1) Inhibitory activities were defined as a test compound concentration achieving 50% human COX-1 or human COX-2 inhibition. The selectivity of compounds was referred to as a compound’s selectivity index values calculated as IC50 (COX-1)/IC50 (COX-2).
(§2) In vitro human COX-1 and human COX-2 enzymatic inhibitory activity of the tested compounds as well as the reference drugs was carried out according to the previously mentioned procedures; for details, see Page S15, Supplementary File.
(§3) 4.2. Biological screening
(§4) 4.2.1. In vitro human COX-1 and human COX-2 enzymatic inhibitory activities In vitro human COX-1 and human COX-2 enzymatic inhibitory activity of the tested compounds as well as the reference drugs was carried out according to the previously mentioned procedures [1][2]depending on Cayman colorimetric COX (ovine) inhibitor screening assay kit (Catalog No.
(§5) All reagents, test solutions and experimental procedures were performed in correspondence to both the manufacturer’s instructions and previously reported methods. Briefly, […] of different concentrations of tested compound solutions were added to a series of supplied reaction buffer solutions (960 µL, 0.1 M Tris-HCl, pH 8.0 containing 5 mM EDTA and 2 mM phenol) with either COX-1 or COX-2 (10 µL) enzyme in the presence of heme (10 µL). 10 µL of Arachidonic Acid (100 µM) solution were added to the mixtures of the enzyme and tested compounds, After incubating for 5 min at 25 °C followed by stopping COX reaction by adding of 50 µL of 1 M HCl. Moreover, after adding 100 µL of saturated stannous chloride solution, the absorbance was measured spectrophotometrically using plate reader. measuring the […]
(§6) percentage of human COX-1 or human COX-2 enzymatic inhibition of five different concentrations of each compound and then concentration-inhibition response curve were plotted to obtain IC50 values(three determinations). […]

human COX-2 = molecular target: T2, human COX-2 (Homo sapiens, UniProt P35354); test: In vitro human COX-2 enzymatic inhibitory activity (Cayman COX inhibitor screening assay kit); assay type: biochemical; settings: for SI COX-1/COX-2: COX-2 selectivity index: COX-1 IC50/COX-2 IC50; for IC50: mean ± SEM of triplicate determinations
T2 construct: purchased Cayman Chemicals Inc., Ann Arbor, MI, USA 560131
T2 sequence (P35354 18-604): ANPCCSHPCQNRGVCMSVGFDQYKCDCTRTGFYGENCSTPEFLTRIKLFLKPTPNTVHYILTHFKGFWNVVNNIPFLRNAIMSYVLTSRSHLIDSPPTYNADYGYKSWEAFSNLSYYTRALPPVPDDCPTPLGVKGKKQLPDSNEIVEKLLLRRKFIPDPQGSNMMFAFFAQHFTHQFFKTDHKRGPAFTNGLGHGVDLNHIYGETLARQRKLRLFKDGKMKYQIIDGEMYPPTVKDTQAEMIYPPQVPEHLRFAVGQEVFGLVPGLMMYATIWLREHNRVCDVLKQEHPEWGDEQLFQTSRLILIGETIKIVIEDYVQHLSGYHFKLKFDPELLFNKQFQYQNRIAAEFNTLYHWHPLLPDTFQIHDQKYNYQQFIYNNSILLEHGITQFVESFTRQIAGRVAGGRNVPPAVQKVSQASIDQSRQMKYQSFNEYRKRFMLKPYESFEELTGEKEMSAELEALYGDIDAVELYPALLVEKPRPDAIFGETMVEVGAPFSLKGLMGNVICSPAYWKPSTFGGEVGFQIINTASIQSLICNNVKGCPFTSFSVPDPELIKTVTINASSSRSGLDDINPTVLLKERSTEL
Procedure: as §1, §2, §3, §4, §5, §6

IC50 [1] [µM]	SI COX-1/COX-2 (human COX-2)	IC50 (human COX-2) [µM]	melting point [°C]	Compound
6.67 ± 0.0667	83.38	0.08 ± 0.0006	220 to 222	CC(=NNC(=O)c1ccccc1O)c1nnn(-c2ccc(S(N)(=O)=O)cc2)c1C [Compound 6g, 4-(4-(1-(2-(2-Hydroxybenzoyl)hydrazineylidene)ethyl)-5-methyl-1H-1,2,3-triazol-1-yl)benzenesulfonamide]
10.23 ± 0.0882	146.14	0.07 ± 0.0006	248 to 250	CC(=NNC(=O)c1ccccc1O)c1nnn(-c2ccc(S(=O)(=O)Nc3ncccn3)cc2)c1C [Compound 6i, 4-(4-(1-(2-(2-Hydroxybenzoyl)hydrazineylidene)ethyl)-5-methyl-1H-1,2,3-triazol-1-yl)-N-(pyrimidin-2-yl)benzenesulfonamide]
8.4 ± 0.0577	105	0.08 ± 0.0009	241 to 243	CC(=NNC(=O)Cc1ccccc1Nc1c(Cl)cccc1Cl)c1nnn(-c2ccc(S(N)(=O)=O)cc2)c1C [Compound 6d, 4-(4-(1-(2-(2-(2-((2,6-Dichlorophenyl)amino)phenyl)acetyl)hydrazineylidene)ethyl)-5-methyl-1H-1,2,3-triazol-1-yl)benzenesulfonamide]
9.27 ± 0.0667	84.27	0.11 ± 0.0057	241 to 243	CC(=O)c1nnn(-c2ccc(S(=O)(=O)Nc3nccc(C)n3)cc2)c1C [Compound 4d, 4-(4-Acetyl-5-methyl-1H-1,2,3-triazol-1-yl)-N-(4-methylpyrimidin-2-yl)benzenesulfonamide]
12.67 ± 0.0333	158.38	0.08 ± 0.0007	276 to 278	CC(=NNC(=O)Cc1ccccc1Nc1c(Cl)cccc1Cl)c1nnn(-c2ccc(S(=O)(=O)Nc3ncccn3)cc2)c1C [Compound 6f, 4-(4-(1-(2-(2-(2-((2,6-Dichlorophenyl)amino)phenyl)acetyl)hydrazineylidene)ethyl)-5-methyl-1H-1,2,3-triazol-1-yl)-N-(pyrimidin-2-yl)benzenesulfonamide]
8.23 ± 0.0667	91.44	0.09 ± 0.0003	233 to 235	CC(=O)c1nnn(-c2ccc(S(=O)(=O)Nc3ncccn3)cc2)c1C [Compound 4c, 4-(4-Acetyl-5-methyl-1H-1,2,3-triazol-1-yl)-N-(pyrimidin-2-yl)benzenesulfonamide]
8.27 ± 0.0667	91.89	0.09 ± 0.0006	227 to 229	CC(=NNC(=O)c1ccccc1O)c1nnn(-c2ccc(S(=O)(=O)Nc3nccs3)cc2)c1C [Compound 6h, 4-(4-(1-(2-(2-Hydroxybenzoyl)hydrazineylidene)ethyl)-5-methyl-1H-1,2,3-triazol-1-yl)-N-(thiazol-2-yl)benzenesulfonamide]
